Values quoted from earlier work as cited in patent US20120064152A1, “Analgesic and Anti-Inflammatory Compositions Comprising Domperidone and Methods of Using Same” (THE BOOTS COMPANY, priority 1996, published 2012).
Read-outs that look alike come from different tables or passages of the source.

Conditions: oral 100 mg sumatriptan

CNS(=O)(=O)Cc1ccc2[nH]cc(CCN(C)C)c2c1 [sumatriptan]
effectiveness compared with aspirin 900 mg plus 10 mg metoclopramide (initial attacks): as effective as aspirin 900 mg plus 10 mg metoclopramide
effectiveness compared with aspirin 900 mg plus 10 mg metoclopramide (subsequent attacks): more effective
